Format in all cases: cell-based, Salmonella enterica serovar Typhimurium
Assay [1] has as its system Δfra island (HMB205). The experiment in a line: Growth inhibition by F-Asn in M9 glucose medium, fra island mutant. The conditions noted are these: M9 minimal medium with glucose and F-Asn. How it is done: (§1) FIG. 25 reflects the determination of the IC50 and IC90 of F-Asn to a fraB mutant. Wild-type (strain 14028, ●), ΔfraB::kan (HMB206, □) or Δfra island (HMB205, ▴) were grown in M9 minimal medium containing 5 mM glucose and varying concentrations of F-Asn. The data points represent the optical density obtained after 15 hours of growth at 37° C.
(§2) Growth curves were performed using clear, flat-bottom, 96-well plates. Minimal media with the specified carbon source were prepared and overnight cultures were washed twice with sterile water. In each well, 198-μl aliquots of media were inoculated with 2 μl of washed overnight cultures. A Breathe-Easy membrane film (Diversified Biotech) was placed over each 96-well plate. Growth over 18 hr at 37° C. was measured using hourly OD600 measurements in a SpectraMax M5 (Molecular Devices) Microplate Reader and SoftMax Pro 6.1 software.
(§3) To determine if F-Asn was bacteriostatic or bactericidal to the fraB mutant, the 50% and 90% inhibitory concentration (IC50 and IC90) and the minimum bactericidal concentration (MBC) were characterized. The IC50 and IC90 were determined by adding increasing concentrations of F-Asn to M9 minimal medium containing glucose as the carbon source. Growth of the fraB mutant was then monitored in these media. […] To determine the MBC, a small aliquot of these same cultures was dilution-plated onto LB agar.

Assay [2] deals with wild-type MA43 Salmonella. Nature of the assay: Growth with F-Asn under aerobic and anaerobic conditions with or without tetrathionate. The conditions noted are these: 5 mM F-Asn. As to the method: FIG. 4A to FIG. 4D show growth of Salmonella on F-Asn in the presence or absence of tetrathionate or oxygen. Growth of wild-type MA43 and fraB1::kan mutant MA59 on 5 mM F-Asn or 5 mM glucose anaerobically (FIG. 4A and FIG. 4B) or aerobically (FIG. 4C and FIG. 4D) in the presence (FIG. 4A and FIG. 4C) or absence (FIG. 4B and FIG. 4D) of 40 mM tetrathionate (S406 22). Bacteria were grown overnight in LB at 37° C. shaking, centrifuged, resuspended in water, and subcultured 1:1000 into NCE medium containing the indicated carbon source. The optical density at 600 nm was then read at time points during growth at 37° C. with shaking. Each point represents the mean of four cultures with error bars indicating standard deviation. ● F-Asn wild-type; ▪ F-Asn fraB mutant; ▴ Glucose wild-type; ▾ Glucose fraB mutant; x-axis: time (hours); y-axis: OD600.
Growth with F-Asn was tested under aerobic and anaerobic conditions in the presence or absence of the terminal electron acceptor tetrathionate (FIG. 4A to FIG. 4D). […] Competition experiments in which the wild-type and fraB1::kan mutant were grown in the same culture were performed in minimal medium containing F-Asn. As expected, the mutant was severely attenuated during aerobic and anaerobic growth, and in the presence or absence of tetrathionate (FIG. 5). Indeed, the attenuation was most severe during anaerobic growth in the presence of tetrathionate.

For assay [3], the system named is ΔfraB::kan (HMB206) fraB mutant. Nature of the assay: Growth inhibition of fraB mutant by F-Asn in M9 glucose medium (IC50, IC90, MBC). As to the method: as §1, §2, §3
For assay [4], the system named is Wild-type (strain 14028). The experiment in a line: Growth inhibition by F-Asn in M9 glucose medium, wild-type. The conditions noted are these: M9 minimal medium with glucose and F-Asn. As to the method:
as §1, §2, §3

For assay [5], the system named is wild-type MA43 Salmonella. Nature of the assay: Growth of Salmonella on Amadori products as sole carbon source. Conditions: NCE minimal medium, carbon source at 5 mM, 37° C. How it is done: FIG. 2A to FIG. 2E are graphs showing growth of wild-type and fraB1::kan mutant Salmonella on Amadori products. Growth of wild-type MA43 and fraB1::kan mutant MA59 on F-Asn (FIG. 2A), F-Arg (FIG. 2B), F-Lys (FIG. 2C), asparagine, arginine, lysine, or glucose (FIG. 2D). Bacteria were grown overnight in Luria Bertani (LB) broth at 37° C. with shaking, centrifuged, resuspended in water, and subcultured 1:1000 into minimal “no carbon E” (NCE) medium (containing trace metals) and the indicated carbon source at 5 mM. The optical density at 600 nm was then read at time points during growth at 37° C. with shaking. Controls included NCE with no carbon source, and NCE with glucose that was not inoculated, as a sterility control (FIG. 2D). FIG. 2E is a graph showing complementation of a fraB1::kan mutation with plasmid pASD5006 encoding the fra island (ASD6000) or the vector control, pWSK29 (ASD6010). Each point represents the mean of three cultures with error bars indicating standard deviation. FIG. 2A to FIG. 2C: ● wild-type; ◯ fraB mutant; FIG. 2D: ● Glucose wild-type; ◯ Glucose fraB mutant; □ No carbon source; ● Sterility; ⋄ Asn wild-type; * Arg wild-type; × Lys wild type; FIG. 2E: ◯ Glucose fraB mutant+pASD5006; ● Glucose fraB mutant+vector; ▪ F-Asn fraB mutant+pASD5006; F-Asn fraB mutant+vector; y-axis: OD600; x-axis: time (hours).
Amadori products most often result from a spontaneous reaction between a carbonyl group (often of glucose, although numerous other compounds can also react) and an amino group of an amino acid in vivo, and are then referred to as non-enzymatic glycation products. Zhang et al., 8 J. Proteome. Res. 754 (2009); Tessier, 58 Pathol. Biol. 214 (2010). With F-Lys and fructose-arginine (F-Arg) this can happen with the free amino acid, or the side groups of the lysine and arginine residues of a protein. In contrast, fructose-asparagine (F-Asn) can only result from reaction of glucose with the alpha amino group of free asparagine or the N-terminal asparagine of a protein. […]

“Also recorded” adds a separate entry of the source.

What is called IC50 is the concentration at which inhibition is half-maximal. By IC90 is commonly meant the point of the concentration-response curve where the effect stands at 90%. In the case of `NC(=O)C[C@@H](NCC1(O)OC[C@@H](O)[C@@H](O)[C@@H]1O)C(=O)O` (stereo partly drawn) [F-Asn, (2R)-4-amino-4-oxo-2-[[(3S,4R,5R)-2,3,4,5-tetrahydroxyoxan-2-yl]methylamino]butanoic acid], the inhibitory to growth result in assay [1] and in assay [4] was “not” in each case. Further, the “Salmonella doubling time on F-Asn” value in assay [2] (aerobically with tetrathionate) amounted to 1.6 ± 0.1 h; in assay [2] (aerobically without tetrathionate), 2.0 ± 0.3 h; in assay [2] (anaerobically with tetrathionate), 1.9 ± 0.1 h; in assay [2] (anaerobically without tetrathionate) it was 2.9 ± 0.4 h. The molecule also gave an IC50 in assay [3] (Salmonella enterica, M9 minimal medium, 5 mM glucose, varying F-Asn, optical density after 15 hours at 37° C., 95% confidence interval 9 to 40 μM) of 19 µM. In addition, the IC90 in assay [3] (Salmonella enterica, M9 minimal medium, 5 mM glucose, varying F-Asn, optical density after 15 hours at 37° C., 95% confidence interval 82 to 368 μM) is 174 µM. Further, the “minimum bactericidal concentration (MBC)” value in assay [3] (aliquot of IC50 cultures dilution-plated onto LB agar, up to highest F-Asn concentrations tested) was “no MBC was revealed”. Moreover, in assay [3] (in vitro, cultures dilution-plated onto LB agar), the “bacteriostatic or bactericidal to the fraB mutant” value is reported as “bacteriostatic; also recorded: bacteriostatic, not bactericidal”. The “growth on Amadori product as sole carbon source” value (from here on “growth on Amadori product”) in assay [5] is recorded as “grew as well on F-Asn as on glucose”.
In the case of fructose-lysine [F-Lys], the “growth on Amadori product” value in assay [5] was “grew slowly and with low yield”.
Consider fructose-arginine [F-Arg], for which the “growth on Amadori product” value in assay [5] was “unable to grow”.

For the origin of these results see patent publication US10752933B2, “Methods for the identification, characterization, and use of inhibitors of the fructose-asparagine utilization pathway” (priority 2015, dated 2020).
